In US20250127778A1, “CANCER IMMUNOTHERAPY COMPOSITION CONTAINING INTERACTION INHIBITOR OF STING AND TRIM29 AS ACTIVE INGREDIENT” (SPARK BIOPHARMA, INC, priority 2021, published 2025):

What was measured:
tumor = assay: Combination with PD-1 antibody immune checkpoint therapeutic agent in tumor model; assay type: in vivo, mouse; conditions: intratumoral, combination with intravenous PD-1 antibody compared to PD-1 antibody alone; FIG. 32
Description: It was confirmed whether the efficacy can be increased in case of treating in combination with existing immune checkpoint therapeutic agents from the efficacy of constructing the systemic anticancer immune system of the compound of Formula 1.

[1] = system: phosphorylation of downstream signaling proteins TBK1 and IRF3; assay: Western blotting of STING sub-immune signaling pathway activation; assay type: cell-based; conditions: in combination with cGAMP; FIG. 7
Description: First, the A431 cell line was seeded in a transparent 12-well plate and cultured for one day. Thereafter, the cells were treated with the compounds of Formulas 1 to 6, respectively, and then cultured for additional 24 hours. Finally, after supernatant culture medium of the cells was removed, the remaining supernatant was diluted and removed with PBS (phosphate buffer saline) to prepare a Western blotting sample. All procedures for preparing Western blotting sample were performed at 4° C. […] The protein concentration of the supernatant was measured by using the Micro BCA™ protein assay kit (ThermoFisher) according to the protocol of the manufacturer. […] The treated samples were analyzed by SDS-PAGE, then transferred to a PVDF membrane, and cultured in a TBST solution containing 4% BSA for 30 minutes. […] Finally, after four TBST washing processes, the solution was developed with an ECL (enhanced chemiluminescence) prime solution of Amersham, the chemical luminescence signal was measured by using ChemiDoc MP of Bio-Rad Laboratories, Inc., the obtained results were quantified by using the ImageLab 6.0 program, and the results were plotted by using the Prism 8.0 program. […]

TRIM29 = target: T1, TRIM29 (Mus musculus, UniProt Q8R2Q0); assay: ITDRF in Raw264.7 cells, TRIM29; assay type: binding; conditions: FIG. 14
T1 construct: endogenous in cells; host or cells: Raw264.7
T1 sequence (Q8R2Q0 1-587): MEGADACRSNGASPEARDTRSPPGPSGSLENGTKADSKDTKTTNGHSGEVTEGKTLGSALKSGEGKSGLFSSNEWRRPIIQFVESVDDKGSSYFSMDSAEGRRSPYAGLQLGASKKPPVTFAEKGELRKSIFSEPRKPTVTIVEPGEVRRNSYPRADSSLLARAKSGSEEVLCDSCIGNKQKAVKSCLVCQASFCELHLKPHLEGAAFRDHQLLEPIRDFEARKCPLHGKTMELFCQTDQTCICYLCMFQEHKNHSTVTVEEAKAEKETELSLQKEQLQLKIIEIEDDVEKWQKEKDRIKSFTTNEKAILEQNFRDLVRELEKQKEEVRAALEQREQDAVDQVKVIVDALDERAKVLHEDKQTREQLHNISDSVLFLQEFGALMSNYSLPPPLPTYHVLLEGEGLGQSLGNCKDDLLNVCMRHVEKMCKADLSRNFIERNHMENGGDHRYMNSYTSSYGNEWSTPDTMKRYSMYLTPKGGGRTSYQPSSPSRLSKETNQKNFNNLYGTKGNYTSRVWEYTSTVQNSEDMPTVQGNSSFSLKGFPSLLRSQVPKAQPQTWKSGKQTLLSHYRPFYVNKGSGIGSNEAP
Description: It was verified whether the oxopiperazine derivative of the present invention was bound to STING among STING and TRIM29 to inhibit interaction thereof, based on the compound of Formula 1, by the cellular thermal shift assay (CETSA) and the isothermal dose response fingerprint (ITDRF) which were major technologies for verifying the interaction between small molecule compounds and target proteins. (D. M. Molinaetal., Science 2013, 341, 84-87.)
To verify the target of the compound of Formula 1 using the CETSA technique, the human A431 cell lines and mouse Raw264.7 cell lines were seeded on a 100-mm or 150-mm culture dish and cultured for one day. […] Afterwards, centrifugation was performed at 20000 g for 20 minutes at 4° C., the supernatant was transferred to a new container, and each concentration was measured by using the Micro BCA™ protein assay kit (ThermoFisher) according to the protocol of the manufacturer. The concentration of each sample was equally adjusted by using the RIPA lysis buffer, the 5× SDS-PAGE loading buffer (Biosesang) was added according to the ratio of the manufacturer, and the resultant was treated at 95° C. for 5 minutes and analyzed by using the Western blotting method described above.

Compound: COc1ccc(CC2=CN(c3ccc(C(=O)NC[C@H]4CCCO4)cc3[N+](=O)[O-])[C@H](C(C)C)C(=O)N2Cc2ccc(O)cc2)cc1 [Formula 1, 4-((R)-4-(4-hydroxybenzyl)-2-isopropyl-5-(4-methoxybenzyl)-3-oxo-3,4-dihydropyrazin-1 (2H)-yl)-3-nitro-N-(((R)-tetrahydrofuran-2-yl)methyl)benzamide]
- final tumor weight (tumor): decreased in a concentration-dependent manner
- tumor growth (tumor): decreased in a concentration-dependent manner
- degree of phosphorylation of TBK1 and IRF3 [1]: further increased
- ITDRF effect on TRIM29 (TRIM29): without affecting TRIM29
